Read-outs that look alike come from different tables or passages of the source.

The conditions of series [1]: cyclosporine specification provided by the supplier; cited from earlier work.
Series [2] is described as follows: Example 3.2 proof-of-concept PK study: cyclosporine tear fluid concentration and drug released, beagles (Table 3.2). It is filed as in vivo, beagle dogs. Conditions: 0.44 mg dose SG insert, over 32 days, assuming consistent daily release. The text has this: Inserts were removed at 32 days to determine the amount of remaining drug compared to the administered dose.

The conditions of series [3]: 0.7 mg dose SAZ insert, beagles.

For `CC=CCC(C)C(O)C1C(=O)NC(CC)C(=O)N(C)CC(=O)N(C)C(CC(C)C)C(=O)NC(C(C)C)C(=O)N(C)C(CC(C)C)C(=O)NC(C)C(=O)NC(C)C(=O)N(C)C(CC(C)C)C(=O)N(C)C(CC(C)C)C(=O)N(C)C(C(C)C)C(=O)N1C` (stereo not drawn) [Cyclosporine, 30-ethyl-33-(1-hydroxy-2-methylhex-4-enyl)-1,4,7,10,12,15,19,25,28-nonamethyl-6,9,18,24-tetrakis(2-methylpropyl)-3,21-di(propan-2-yl)-1,4,7,10,13,16,19,22,25,28,31-undecazacyclotritriacontane-2,5,8,11,14,17,20,23,26,29,32-undecone], in series [1], the D10 is reported as 0.5 μm, the D50 is listed as 2.1 μm and the D90 is on record as 7.5 μm. In addition, the “estimated daily delivered dose” value in series [2] is 6.3 µg/day. For the same compound, the “average amount of cyclosporine released in 6 weeks” value in series [3] (inserts removed at 6 weeks) was 0.37 mg. In addition, the “estimated daily delivered dose” value in series [3] (over 6 weeks, assuming consistent daily release) was 8.8 µg/day.

The values above are taken from US11291627B1 (Ocular Therapeutix, Inc., priority 2020, dated 2022).
